Data from US8030303B2, “Salt of morpholine compound” (Mitsubishi Tanabe Pharma Corporation, priority 2006, dated 2011).

How the values were obtained:
[1] = Vapor sorption measurement (index of hygroscopicity), DVS-1 apparatus; type: physicochemical; conditions: relative humidity 70%, change calculated based on weight at relative humidity 0%, sample about 7 mg
Procedure: A vapor sorption measurement to provide an index of hygroscopicity was performed using a DVS-1 vapor sorption apparatus (manufactured by SMS) under the following conditions. A sample of about 7 mg was used and the relative humidity was increased by 10% within the range of from 0% to 90%, and finally to 95%. The weight change was recorded at each predetermined relative humidity, and the amount of change (%) was calculated based on the weight at relative humidity 0%. As the samples, compound 1-2 (hereinafter to be referred to as a free form) obtained according to the method described in WO 2006/028284, Example 2, compound 1-3 (hereinafter to be referred to as hydrobromide Form I crystal) obtained according to the method described in Example 1 and compound 2 (hereinafter to be referred to as hydrobromide Form II crystal) obtained according to the method described in Example 2 were used.

[2] = biological target: T1, CCR3 (Homo sapiens, UniProt P51677); conditions: known from WO2006/028284, Table 1 of Experimental Example 1; cited from earlier work
T1 sequence (P51677 1-355): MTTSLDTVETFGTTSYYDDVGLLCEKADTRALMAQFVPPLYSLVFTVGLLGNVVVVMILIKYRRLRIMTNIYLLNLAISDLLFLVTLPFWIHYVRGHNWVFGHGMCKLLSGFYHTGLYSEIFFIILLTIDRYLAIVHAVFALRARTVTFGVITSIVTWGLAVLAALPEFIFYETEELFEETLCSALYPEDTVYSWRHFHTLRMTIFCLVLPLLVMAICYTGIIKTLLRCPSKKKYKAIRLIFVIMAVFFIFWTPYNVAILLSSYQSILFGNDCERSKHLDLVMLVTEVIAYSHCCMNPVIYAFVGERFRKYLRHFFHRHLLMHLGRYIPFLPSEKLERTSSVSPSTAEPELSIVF

SMILES | weight change (gain) due to vapor sorption [1] [%] | CCR3 antagonism / inhibition of CCR3-ligand binding [2] | weight change (gain) due to vapor sorption ([1]; hydrobromide) [%]
Br.O=C(O)Cc1csc(SCC(=O)NC[C@H]2CN(Cc3ccc(Cl)c(Cl)c3)CCO2)n1 [free form, (2S)-[4-(carboxymethyl)thiazol-2-ylthio]-N-{[4-(3,4-dichlorobenzyl)morpholin-2-yl]methyl}acetamide] | 3.3 | inhibit the bond between CCR3 and a ligand thereof, and act as an antagonist | –
Br.O=C(O)Cc1csc(SCC(=O)NC[C@H]2CN(Cc3ccc(Cl)c(Cl)c3)CCO2)n1 [hydrobromide Form I crystal, (2S)-[4-(carboxymethyl)thiazol-2-ylthio]-N-{[4-(3,4-dichlorobenzyl)morpholin-2-yl]methyl}acetamide hydrobromide] | – | – | 0.1
Br.O=C(O)Cc1csc(SCC(=O)NC[C@H]2CN(Cc3ccc(Cl)c(Cl)c3)CCO2)n1 [hydrobromide Form II crystal, (2S)-[4-(carboxymethyl)thiazol-2-ylthio]-N-{[4-(3,4-dichlorobenzyl)morpholin-2-yl]methyl}acetamide hydrobromide] | – | – | 1.4
